{"source": "patent US9096594B2", "about": "“Kinase inhibitors and methods of use thereof” (priority 2012, dated 2015)", "key": {"SH-SY5Y cells": {"system": "SH-SY5Y cells", "assay": "Cellular toxicity in SH-SY5Y cells", "conditions": "highest testing concentration of 30 μM", "method": "Biochemical characterization of these synthesized compounds were assayed against GSK3β and CDK5/p25, with CDK5/p25 serving as a counter target of GSK3β selectivity. […] The effects of these compounds on survival of SH-SY5Y pathophysiology cells were also monitored."}, "physchem": {"assay": "physchem", "conditions": "phosphate buffered saline (PBS) with 1% DMSO, 23 °C, pH 7.4, aqueous buffer, kinetic from dmso stock"}, "GSK3α [1]": {"biological_target": "T1, GSK3α (Homo sapiens (Human), UniProt P49840)", "T1 sequence (P49840 whole entry)": "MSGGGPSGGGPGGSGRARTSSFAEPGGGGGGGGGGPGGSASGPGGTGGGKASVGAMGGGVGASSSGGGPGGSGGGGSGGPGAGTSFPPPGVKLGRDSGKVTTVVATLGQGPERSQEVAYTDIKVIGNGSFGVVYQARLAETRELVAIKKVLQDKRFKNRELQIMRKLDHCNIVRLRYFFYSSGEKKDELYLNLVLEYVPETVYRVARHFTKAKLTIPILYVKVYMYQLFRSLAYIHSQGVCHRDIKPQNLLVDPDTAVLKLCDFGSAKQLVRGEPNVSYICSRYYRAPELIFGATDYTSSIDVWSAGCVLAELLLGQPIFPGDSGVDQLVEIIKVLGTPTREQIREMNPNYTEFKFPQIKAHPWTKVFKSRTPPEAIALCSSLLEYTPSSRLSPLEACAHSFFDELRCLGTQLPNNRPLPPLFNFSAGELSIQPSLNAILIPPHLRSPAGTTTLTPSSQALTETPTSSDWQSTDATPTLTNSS", "assay": "biochemical"}, "[2]": {"assay": "Plasma protein binding (equilibrium dialysis), human plasma", "type": "in vitro ADME", "experimental": "Plasma protein binding was determined by equilibrium dialysis using the Rapid Equilibrium Dialysis (RED) device (Pierce Biotechnology, Rockford, Ill.) for both human and mouse plasma. Each compound was prepared in duplicate at 5 μM in plasma (0.95% acetonitrile, 0.05% DMSO) and added to one side of the membrane (200 μl) with PBS pH 7.4 added to the other side (350 μl). Compounds were incubated at 37° C. for 5 hours with a 250 rpm orbital shake."}, "GSK3β [3]": {"biological_target": "T2, GSK3β (Homo sapiens (Human), UniProt P49841)", "T2 sequence (P49841 whole entry)": "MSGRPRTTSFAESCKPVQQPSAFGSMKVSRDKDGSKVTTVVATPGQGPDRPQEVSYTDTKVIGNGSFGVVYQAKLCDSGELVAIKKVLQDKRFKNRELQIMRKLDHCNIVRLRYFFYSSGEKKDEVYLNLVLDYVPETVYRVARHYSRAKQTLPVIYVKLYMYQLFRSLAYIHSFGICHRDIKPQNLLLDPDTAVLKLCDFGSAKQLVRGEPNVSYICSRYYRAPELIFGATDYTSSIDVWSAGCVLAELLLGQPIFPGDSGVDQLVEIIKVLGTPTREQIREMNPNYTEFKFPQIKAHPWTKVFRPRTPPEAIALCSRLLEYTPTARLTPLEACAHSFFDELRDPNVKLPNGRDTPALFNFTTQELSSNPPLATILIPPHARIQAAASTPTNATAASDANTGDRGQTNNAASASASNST"}, "GSH stability": {"assay": "GSH stability", "type": "physicochemical", "conditions": "48 hours", "experimental": "Stability was determined in the presence of PBS pH […] and 50 μM glutathione with 0.1% DMSO. Each compound was prepared in duplicate on six separate plates and allowed to equilibrate at room temperature with a 250 rpm orbital shake for 48 hours. One plate was removed at each time point (0, 2, 4, 8, 24, and 48 hours). […] Additionally, to the remaining material at each time point, acetonitrile was added to force dissolution of compound (to test for recovery of compound). An aliquot of this was also analyzed by UPLC-MS."}, "panel of 311 kinases": {"system": "panel of 311 kinases", "assay": "Kinome-wide selectivity profile (Carna Biosciences, 311 kinases)", "type": "biochemical", "method": "(§1) Briefly, a selection of compounds was screened against a panel of kinases at a single concentration of 10 μM. […] This was completed utilizing one of two assays depending on the kinase being examined.\n(§2) Test compounds were dissolved in and diluted with dimethylsulfoxide (DMSO) to generate a 100× sample solution. These were then diluted to 4× sample solutions in assay buffer to make the final test compound solutions. Reference compounds for assay control were prepared similarly.\n(§3) A solution of IMAP binding reagent (IMAP Screening Express kit; Molecular Devices) (60 μL) was added to each well and incubated for 30 minutes.\n(§4) A solution of termination buffer (QuickScout Screening assist MSA; Carna Biosciences) (60 μL) was added to each well. The entire reaction mixture was then applied to a LabChip3000 system (Caliper Life Science) and the product and substrate peptide peaks were separated and quantified."}, "GSK3β [4]": {"biological_target": "T2, GSK3β", "assay": "biochemical", "method": "(§5) Human GSK3β as a GST fusion expressed in baculoviral system was purchased from BPS Bioscience (San Diego, Calif.). […] Reactions were incubated at room temperature for 60 minutes. 2.5 μL/well of ADP-Glo (Promega, V9103) was added with BioRAPTR, and incubated at room temperature for 40 minutes followed by addition of 5 μL/well of ADP-Glo detection reagent (Promega, V9103) with Combi nL (Thermo, Waltham, Mass.) and incubation at room temperature for 30 minutes. The plates were read on a ViewLux (PerkinElmer, Waltham, Mass.) for luminescence. Data were scaled using the positive and neutral controls and fitted for IC50 as described below.\n(§6) 100 mL/well compounds were pinned. […] Incubated at room temperature for 60 minutes. Added 20 μL/well of ADP-glo (Promega, V9103) with Combi, and incubated at room temperature for 40 minutes. Added 40 μL/well of ADP-glo (Promega, V9103) with Combi, incubated at room temperature for 30 minutes. Read on Envision for luminescence."}, "CDK2/CycE1": {"biological_target": "CDK2/CycE1 (Homo sapiens (Human), UniProt P24941)", "assay": "Carna Biosciences kinase assay, CDK2/CycE1", "type": "biochemical", "conditions": "read-out: % Inhibition at 10 μM, CDK2/CycE1", "method": "as §1, §2, §3, §4\n(§7) The assay utilized was identical to that of the single point inhibitory activity determination (MSA) but run in dose response. […] A solution of termination buffer (QuickScout Screening assist MSA; Carna Biosciences) (60 μL) was added to each well. The entire reaction mixture was then applied to a LabChip3000 system (Caliper Life Science) and the product and substrate peptide peaks were separated and quantified."}, "[5]": {"system": "β-catenin nuclear translocation in U2-OS cells", "assay": "β-Catenin nuclear localization assay", "type": "cell-based", "method": "β-Catenin Nuclear Localization Assay\nU2-OS cells stably expressing two complimentary β-galactosidase fragments (one part on β-Catenin and the other constitutively expressed in the cell nucleus) were maintained in DMEM F12 supplemented with 10% FBS. When β-catenin translocates to the nucleus, the complimentary fragments form a complete β-galactosidase, the amount of which is then quantified by β-galactosidase activity (DiscoveRx). Cells were seeded in a 384-well CulturPlate (Perkin Elmer, Boston, Mass.) with 10,000 per well in 20 μL DMEM F12 containing 10% FCS, 100 U/ml penicillin and 100 μg/mL streptomycin. After overnight incubation at 37° C., cells were stimulated with 100 mL test compound/well and then returned to the incubator for 6 h. Cells were disrupted using 12 μL substrate-containing lysis buffer from the PathHunter Detection Kit in the formulation specified by the supplier (DiscoveRx). Plates were incubated in the dark for 1 h at room temperature before measurement of P3-galactosidase activity (luminescence) on an EnVision plate reader (PerkinElmer, Waltham, Mass.)."}, "PBS stability": {"assay": "PBS stability", "type": "physicochemical", "conditions": "48 hours of incubation, acetonitrile recovery", "method": "Stability was determined in the presence of PBS pH 7.4 with 0.1% DMSO. Each compound was prepared in duplicate on six separate plates and allowed to equilibrate at room temperature with a 250 rpm orbital shake for 48 hours. One plate was removed at each time point (0, 2, 4, 8, 24, and 48 hours). […] Additionally, to the remaining material at each time point, acetonitrile was added to force dissolution of compound (to test for recovery of compound). An aliquot of this was also analyzed by UPLC-MS."}, "in vitro": {"assay": "in vitro", "conditions": "mouse, mouse plasma, pH 7.4", "method": "Plasma protein binding was determined by equilibrium dialysis using the Rapid Equilibrium Dialysis (RED) device (Pierce Biotechnology, Rockford, Ill.) for both human and mouse plasma. […] Compounds were incubated at 37° C. for 5 hours with a 250 rpm orbital shake."}, "[6]": {"system": "phospho-Tau (Ser199) in SH-SY5Y cells", "assay": "Tau phosphorylation (Ser199) ELISA in SH-SY5Y cells", "type": "cell-based, human", "conditions": "Homo sapiens, SH-SY5Y, read-out: p-Tau (μM)", "method": "Tau Phosphorylation and Total Tau Assay\nSH-SY5Y cells were maintained in DMEM supplemented with 10% heat-inactivated FBS and 1% penicillin-streptomycin (Invitrogen) unless otherwise stated. ELISA kits for phospho-Tau (Ser199) and total Tau detection were purchased from Invitrogen (KHB0041, and KHB7041 respectively). Briefly, SH-SY5Y cells were seeded at 50,000 cells/200 μL/well in 96 well plates and after overnight incubation, treated with various doses of chemical compounds at 0.2 μL/well. The next day cells were washed with PBS twice before being lysed in 100 μL Lysis buffer/well. […]\nA standard protocol using an immunoassay kit to quantify total Tau protein and phospho-Tau (Ser199) protein in SH-SY5Y human neuroblastoma cells was employed. […]\nWell strips were warmed and inserted into the frame. […] Samples were loaded to each well that would be analyzed for total Tau, 85 μl standard diluent buffer and 15 μl cell lysate were added. To each well that will be analyzed for pTau (Ser199) 50 μl standard diluent buffer+50 μl cell lysate were added. […] Anti-total Tau was added to wells being analyzed for total Tau, anti-pTau (Ser199) was added to wells being analyzed for pTau (Ser199), and plates were tapped gently on the side to mix. […] Absorbance of each well was read at 450 nm (within 2 hours of adding stop solution)."}, "GSK3β [7]": {"biological_target": "T2, GSK3β", "assay": "biochemical", "remark": "listed apart in the source"}, "CDK2/CycA2": {"biological_target": "CDK2/CycA2 (Homo sapiens (Human), UniProt P24941)", "assay": "Carna Biosciences kinase assay, CDK2/CycA2", "type": "biochemical", "conditions": "read-out: % Inhibition at 10 μM, CDK2/CycA2", "method": "as §1, §2, §3, §4, §7"}, "[8]": {"system": "TCF/LEF reporter in HEK293-pBARL cells", "assay": "cells", "method": "(§8) HEK293-pBARL cells were derived from HEK293 cells and they stably expressed a firefly-luciferase reporter gene driven by a promoter containing 12 copies of TCF/LEF binding sequences. These cells were maintained in DMEM and supplemented with 10% FBS and 1% penicillin-streptomycin (Invitrogen). Reporter gene assays were conducted in anti-biotic free media. […] These cells also contained a renilla-luciferase reporter gene driven by the ubiquitous EF1α promoter as a control. HEK293-pBarl reporter cell lines were seeded into 384-well culture plates (Corning) at 6000 cells/well. 24 hours after plating, cells were treated overnight with relevant compounds and assayed using DualGlo assay kit (Promega). Luminescent intensities were read by EnVision (PerkinElmer, Waltham, Mass.). Firefly luciferase intensity is normalized by renilla luciferase intensity.\n(§9) Cells were cultured in 384 well plates to appropriate density (40 μl total plating volume). 24 hours after plating, cells were treated with 100 nl compounds. 24 hours after incubation with compounds (48 hours after plating), assay reagents were prepared by mixing Luciferase Assay solution with Luciferase substrate and Stop & Glo solution to Stop & Glo substrate (extra reagents can be aliquoted and frozen for future use and are stable for at least one freeze/thaw cycle). […] The plate was spun down and 10 minutes were allowed for signal stabilization. Luciferase signal on the Perkin Elmer EnVision using the following parameters: Distance between plate & detector (mm)=0.2; Measurement time(s)=0.1; Glow (CT2) correction factor=0. Once the initial data is secure, a volume of Stop & Glo was added equal to each well equal to the volume of Luciferase reagent added above (If 10 μl Luciferase Reagent was added, 10 μl Stop & Glo was also added). The plate was spun down and 10 minutes were allowed for signal stabilization. The plate was read on the EnVision using the same parameters detailed above."}, "[9]": {"system": "TCF/LEF reporter in HEK293-pBARL cells", "conditions": "read-out: TCF/LEF EC50", "method": "as §8, §9"}, "[10]": {"conditions": "mouse plasma, 5 hours", "method": "Plasma stability was determined at 37° C. at 5 hours in both human and mouse plasma. […] Compounds were incubated at 37° C. for 5 hours with a 250 rpm orbital shake with time points taken at 0 and 5 hours."}, "GSK3β [11]": {"biological_target": "T2, GSK3β", "conditions": "read-out: IC50 ADP Glo GSK3β", "method": "as §5, §6"}, "[12]": {"conditions": "M (mouse)"}, "GSK3α [13]": {"biological_target": "T1, GSK3α"}}, "note": "Read-outs that look alike come from different tables or passages of the source.", "data": [{"smiles": "COc1ccccc1[C@@H]1C2=C(CC(C)(C)CC2=O)Nc2n[nH]c(C(F)(F)F)c21", "note": "[Compound 54, (R)-4-(2-methoxyphenyl)-7,7-dimethyl-3-(trifluoromethyl)-6,7,8,9-tetrahydro-2H-pyrazolo[3,4-b]quinolin-5(4H)-one]", "values": [{"measurement": "cellular toxicity in SH-SY5Y cells", "setting": "SH-SY5Y cells", "value": "no cellular toxicity"}, {"measurement": "solubility at 24 h", "setting": "physchem", "value": 85, "unit": "µM"}, {"measurement": "IC50", "setting": "GSK3α [1]", "value": 13, "unit": "nM"}, {"measurement": "Plasma protein binding % bound, human plasma", "setting": "[2]", "value": 93, "unit": "%"}, {"measurement": "fraction unbound at 5 h, 5 µM", "setting": "[2]; human, pH 7.4, read-out: Plasma protein binding % bound, human plasma (converted)", "value": 0.07}, {"measurement": "IC50", "setting": "GSK3β [3]", "value": "< 100", "unit": "nM"}, {"measurement": "stability in glutathione (GSH), % remaining", "setting": "GSH stability", "value": 99, "unit": "%"}, {"measurement": "% of the kinome (311 kinases) inhibited", "setting": "panel of 311 kinases", "value": 2.6, "unit": "%"}, {"measurement": "IC50", "setting": "GSK3β [4]", "value": "< 0.1", "unit": "µM"}, {"measurement": "IC50", "setting": "GSK3β [4]; IC50 ADP Glo GSK3β (μM)", "value": 0.02, "unit": "µM"}, {"measurement": "IC50", "setting": "GSK3β [4]; IC50 against GSK3β at 7 μM ATP", "value": 0.024, "unit": "µM"}, {"measurement": "IC50", "setting": "GSK3β [4]; IC50 against GSK3β at 100 μM ATP", "value": 0.143, "unit": "µM"}, {"measurement": "IC50", "setting": "GSK3β [4]; Target IC50 (nM), GSK3β", "value": 0.024, "unit": "µM"}, {"measurement": "inhibition at 10 µM", "setting": "CDK2/CycE1", "value": 73.5, "unit": "%"}, {"measurement": "EC50", "setting": "[5]; Homo sapiens, U2OS, read-out: beta-Catenin Translocation (μM)", "value": 5.28, "unit": "µM"}, {"measurement": "EC50", "setting": "[5]; read-out: beta-Catenin translocation EC50", "value": 6.97, "unit": "µM"}, {"measurement": "stability in PBS, % still present", "setting": "PBS stability", "value": "more than 95%"}, {"measurement": "fraction unbound at 5 h, 5 µM", "setting": "in vitro", "value": 0.09}, {"measurement": "IC50", "setting": "[6]", "value": 1.03, "unit": "µM"}, {"measurement": "IC50", "setting": "GSK3β [7]", "value": 12, "unit": "nM"}, {"measurement": "inhibition at 10 µM", "setting": "CDK2/CycA2", "value": 78.7, "unit": "%"}, {"measurement": "EC50", "setting": "[8]; read-out: TCF/LEF (μM)", "value": 4.8, "unit": "µM"}, {"measurement": "EC50", "setting": "[8]; read-out: TCF/LEF EC50 (μM)", "value": 5, "unit": "µM"}, {"measurement": "EC50", "setting": "[9]", "value": 5350, "unit": "nM"}, {"measurement": "Plasma stability % remaining (in mice)", "setting": "[10]", "value": 99, "unit": "%"}, {"measurement": "IC50", "setting": "GSK3β [11]", "value": 20, "unit": "nM"}, {"measurement": "Microsomal Stability (M:)", "setting": "[12]", "value": "M: 0%"}, {"measurement": "IC50", "setting": "GSK3α [13]", "value": "< 100", "unit": "nM"}]}]}
